Source: US8809372B2, “Pyridine derivatives” (Endo Pharmaceuticals, Inc., priority 2011, dated 2014)

Tests used:
[1] = target: T1, rat CYP17 (rat testicular microsomes) (Rattus norvegicus, UniProt P11715); assay: CYP17 inhibition assay in rat testicular microsomes; assay type: biochemical
T1 construct: Rat testis tissue was collected and disrupted with 30 strokes of a glass homogenizer; from tissue; host or cells: rat testis (microsomes)
T1 sequence (P11715 1-507): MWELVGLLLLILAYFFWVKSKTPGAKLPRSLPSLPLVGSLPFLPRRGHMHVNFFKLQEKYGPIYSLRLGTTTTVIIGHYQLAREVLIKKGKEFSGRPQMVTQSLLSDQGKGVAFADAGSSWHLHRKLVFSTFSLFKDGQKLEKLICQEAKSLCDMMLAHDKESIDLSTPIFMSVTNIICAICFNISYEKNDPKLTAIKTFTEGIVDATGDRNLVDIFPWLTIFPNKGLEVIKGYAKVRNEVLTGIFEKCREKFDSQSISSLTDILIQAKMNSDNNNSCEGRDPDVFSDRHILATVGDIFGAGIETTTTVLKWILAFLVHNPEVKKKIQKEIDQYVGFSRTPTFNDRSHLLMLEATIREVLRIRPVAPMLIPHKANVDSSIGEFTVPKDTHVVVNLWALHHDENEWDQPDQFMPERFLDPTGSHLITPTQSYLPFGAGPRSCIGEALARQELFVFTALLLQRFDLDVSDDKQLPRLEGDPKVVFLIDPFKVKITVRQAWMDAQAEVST
Protocol: CYP17 Inhibition Assay in Rat Testicular Microsomes (Rat CYP17) or Yeast Microsome Overexpressing Human CYP17
1. NADPH (Sigma): A working stock was prepared by adding 25 μL of 6.5 mM NADPH in each tube. The final concentration of NADPH used in the assay was 325 μM.
2. Potassium Phosphate Buffer: One molar (1M) solutions of K2HPO4 and KH2PO4 were prepared. Eight mL of the 1 M KH2PO4 and 1.98 mL of the 1 M K2HPO4 were combined and the pH was adjusted to 7.4.
3. ^3H3-17α-hydroxypregnenolone (American Radiolabeled Chemicals, Inc., stock 1 μCi/μL): A 1:1 dilution of ^3H3-17α-hydroxypregnenolone in ethanol was prepared by combining 100 μL ^3H3-17α-hydroxypregnenolone+100 μL ethanol for one complete 96 well plate. For the reaction, 2 μL of the diluted ^3H3-17α-hydroxypregnenolone was added in each tube, i.e., 1 μCi/reaction. 4. Microsome Isolation Buffer: The microsome isolation buffer was prepared by combining 250 mM Sucrose, 5 mM EDTA, 10 mM Tris HCl, 4 mM DTT, and adjusting to pH 7.4. 5. TEG Buffer: The TEG buffer was prepared by combining 50 mM Tris HCl, 1 mM EDTA, and 20% Glycerol. 6. Rat Testicular Microsomes: Rat testis tissue was collected and disrupted with 30 strokes of a glass homogenizer on ice with 250 μL of microsome isolation buffer, followed by centrifugation at 10,000 g for 10 minutes at 4° C. The supernatant was collected and centrifuged at 100,000 g for 45 minutes at 4° C. The pellet was dissolved in TEG Buffer and the protein was quantified. The homogenized microsome samples were then frozen at −80° C. • 7. Yeast Microsomes which overexpress the human CYP17 enzyme were obtained from Premas Biotech, India.
Potassium phosphate buffer (470 μL) was prepared as described above and was added to each well of a deep well plate. The test compound was diluted using a TECAN liquid handler and 5 μL of diluted compound was transferred to each well (96 deep well/1 mL). A solution (25 μL) of 6.5 mM NADPH was added (final concentration of 325 μM in the assay). ^3H3-17α-hydroxypregnenolone (2 μL of the working stock) was added to each tube. The plates were then pre-incubated for 15 minutes at 37° C. Following the pre-incubation, either 5 μL rat testicular microsomes (150-160 μg) or 5 μL of yeast microsomes expressing human CYP17 (1.7 pmol), was added. Incubation was at 37° C. for 60 minutes in the presence of oxygen. The plates were then placed in ice and chloroform (500 μL) was added, mixed well and incubated at 4° C. for 20 minutes. The plates were then centrifuged at 1000 rpm for 15 minutes at 4° C.
A portion (300 μL) of the aqueous solution was collected and mixed with a 5% aqueous suspension of activated charcoal (300 μL). The plates were then incubated at 4° C. for 30 minutes, after which the plates were centrifuged at 1000 rpm for 15 minutes at 4° C. From this, 125 μL of the aqueous solution was collected and plated into a 96 well plate. Microscint™ 40 [125 μL, Perkin-Elmer; containing a mixture of a polymer based on alkylphenolethoxylate (20-40%), diethanolamine-phosphoric acid ester ammonium salt (10-20%), sodium dioctyl sulphosuccinate (2.5-10%), triethyl phosphate (2.5-10%), 3,6-dimethyl-4-octyne-3,6-diol (≦2.5%), a polymer based on nonylphenolethoxylate (≦2.5%), diisopropyl naphthalene isomers (40-60%), 2,5-diphenyloxazole (≦2.5%), and 9,10-dimethylanthracene] was added and mixed well. After 30 minutes of incubation, the samples were analyzed with a MicroBeta® Trilux microplate liquid scintillation counter and luminometer (Perkin-Elmer).

[2] = target: T2, human CYP17 in H295R adrenocortical carcinoma cells (Homo sapiens, UniProt P05093); assay: Cell-based human CYP17 inhibition assay, H295R cells; conditions: 16 hours, read-out: CYP17 (human H295R adrenal cells)
T2 construct: H295R Adrenocortical carcinoma cells [NCI-H295A, ATCC Number CRL-2128, American Type Culture Collection; host or cells: H295R adrenocortical carcinoma cells
T2 sequence (P05093 1-508): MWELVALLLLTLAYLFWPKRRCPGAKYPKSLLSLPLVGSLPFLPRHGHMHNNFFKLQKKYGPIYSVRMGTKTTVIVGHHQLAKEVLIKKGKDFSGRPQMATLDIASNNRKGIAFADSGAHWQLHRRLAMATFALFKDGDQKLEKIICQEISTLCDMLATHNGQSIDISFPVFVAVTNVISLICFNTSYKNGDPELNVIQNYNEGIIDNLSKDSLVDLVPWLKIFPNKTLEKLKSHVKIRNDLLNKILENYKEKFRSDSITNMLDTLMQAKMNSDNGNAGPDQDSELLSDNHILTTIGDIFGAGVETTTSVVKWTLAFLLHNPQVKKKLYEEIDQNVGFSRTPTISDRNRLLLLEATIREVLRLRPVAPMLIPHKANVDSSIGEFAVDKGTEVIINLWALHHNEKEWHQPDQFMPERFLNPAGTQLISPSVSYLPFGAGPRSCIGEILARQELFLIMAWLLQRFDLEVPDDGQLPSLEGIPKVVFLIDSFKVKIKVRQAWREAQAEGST
Protocol: Cell-Based Human CYP17 Inhibition Assay
1. H295R Adrenocortical Carcinoma Cells and Growth Media: The media for the H295R Adrenocortical carcinoma cells [NCI-H295A, ATCC Number CRL-2128, American Type Culture Collection, Manassas, Va., US] (500 mL) was a DMEM:F12 Mix 1:1 with 5% (2 mL) BD Nu Serum; 1% (5 mL) ITS+Premix [BD Biosciences] and 1% Penstrep. 2. LNCap-CYP17 Cells and Growth Media: Full length hCYP17a1 gene (NCBI Reference Sequence: NM_000102.3) was cloned in pcDNA3.1(+) vector between HindIII and XhoI site. The pcDNA3.1(+) vector contains the Neomycin resistance gene and was used for selection of stable cell line. The hCYP17a1 containing pcDNA3.1(+) was transfected into LNCap cells to create the LNCap-CYP17 cell line. The media for the LNCaP-CYP17 cells was RPMI 1640, 10% FBS, 1% PenStrep, Geneticin 400 μg/mL.
The H295R cells or LNCaP-hCYP17 cells were subcultured and 30,000 cells per well were seeded in a poly-d lysine plate and incubated overnight at 37° C. The next day the media was removed and 200 μL of fresh media with ^3H3-17α-hydroxy-pregnenolone (1:1000) was added. 50 μL of serially diluted compounds from a 5× plate (5 times the final desired concentration) was added. The working concentration range for active, new compounds started from a high concentration of 10 μM with 3-fold serial dilutions generating up to 10 concentrations. The serial dilution in the 100× plate (in DMSO) and the stamping of a 5× plate (in media) from the 100× plate were carried out using a TECAN liquid handling device.
The plates were incubated overnight (16 hours) at 37° C. After 16 hours, the media was removed (approximately 220 μL) and an equal amount of chloroform was added, mixed and incubated for 30 minutes at 4 degrees. The plate was centrifuged at 4000 rpm for 15 minutes at 4° C., following which the top aqueous layer was carefully removed and added into a new deep well plate. An equal volume of activated 5% charcoal was added, mixed and incubated for 30 minutes at 4° C. The plate was then centrifuged at 4000 rpm for 15 minutes at 4° C. and the top layer carefully separated, avoiding any charcoal contamination, and placed in a white, clear bottom plate (plate cat #3610, Corning Life Sciences). An equal volume of Microscint™ 40 was added and mixed well. Following the incubation for 30 minutes, readings for the radiotracer were taken using a Microbeta® trilux.

| SMILES | IC50 [1] | IC50 [2] |
| --- | --- | --- |
| CC(O)(c1ccncc1)c1cnc(-c2ccc(Cl)c(Cl)c2)s1 (stereo not drawn) [Example 43, 1-(2-(3,4-dichlorophenyl)thiazol-5-yl)-1-(pyridin-4-yl)ethanol] | < 50 nM | < 50 nM |
| CC(O)(c1ccncc1)c1cnc(-c2ccc(F)c(F)c2)s1 (stereo not drawn) [Example 44, 1-(2-(3,4-difluorophenyl)thiazol-5-yl)-1-(pyridin-4-yl)ethanol] | < 50 nM | < 50 nM |
| CC(O)(c1ccncc1)c1cnc(-c2ccc(S(C)(=O)=O)cc2)s1 (stereo not drawn) [Example 45, 1-(2-(4-(methylsulfonyl)-phenyl)thiazol-5-yl)-1-(pyridin-4-yl)ethanol] | 50 to 200 nM | 201 to 10000 nM |
| CC(O)(c1ccncc1)c1cnc(-c2ccc(F)c(Cl)c2)s1 (stereo not drawn) [Example 46, 1-(2-(3-chloro-4-fluorophenyl)thiazol-5-yl)-1-(pyridin-4-yl)ethanol] | < 50 nM | < 50 nM |
| CC(C)CC(O)(c1ccncc1)c1cnc(-c2ccc(F)cc2)s1 (stereo not drawn) [Example 47, 1-(2-(4-fluorophenyl)thiazol-5-yl)-3-methyl-1-(pyridin-4-yl)butan-1-ol] | < 50 nM | < 50 nM |
| CC(O)(c1ccncc1)c1cc(-c2ccc(F)cc2)ns1 (stereo not drawn) [Example 48, 1-(3-(4-fluorophenyl)isothiazol-5-yl)-1-(pyridin-4-yl)ethanol] | < 50 nM | < 50 nM |
| CC(O)(c1ccncc1)c1cc(-c2ccc(F)cc2)n[nH]1 (stereo not drawn) [Example 49, 1-(3-(4-fluorophenyl)-1H-pyrazol-5-yl)-1-(pyridin-4-yl)ethanol] | < 50 nM | 201 to 10000 nM |
| CC(O)(c1ccncc1)c1cc(-c2ccc(F)cc2)on1 (stereo not drawn) [Example 50, 1-(5-(4-fluorophenyl)isoxazol-3-yl)-1-(pyridin-4-yl)ethanol] | < 50 nM | 50 to 200 nM |
| CC(O)(c1ccncc1)c1cnc(-c2ccccc2)s1 (stereo not drawn) [Example 51, 1-(2-phenylthiazol-5-yl)-1-(pyridin-4-yl)ethanol] | < 50 nM | < 50 nM |
| CC(O)(c1ccncc1)c1nc(-c2ccc(F)cc2)ns1 (stereo not drawn) [Example 52, 1-(3-(4-fluorophenyl)-1,2,4-thiadiazol-5-yl)-1-(pyridin-4-yl)ethanol] | < 50 nM | < 50 nM |
| CC(O)(c1ccncc1)c1nsc(-c2ccc(F)cc2)n1 (stereo not drawn) [Example 53, 1-(5-(4-fluorophenyl)-1,2,4-thiadiazol-3-yl)-1-(pyridin-4-yl)ethanol] | 50 to 200 nM | 201 to 10000 nM |
| CC(O)(c1ccncc1)c1cnc(-c2ccc(C#N)cc2)s1 (stereo not drawn) [Example 56, 4-(5-(1-hydroxy-1-(pyridin-4-yl)ethyl)thiazol-2-yl)benzonitrile] | < 50 nM | 50 to 200 nM |
| CCC(O)(c1ccncc1)c1ncc(-c2cn[nH]c2)o1 (stereo not drawn) [Example 57, 1-(5-(1H-pyrazol-4-yl)oxazol-2-yl)-1-(pyridin-4-yl)propan-1-ol] | 50 to 200 nM | 201 to 10000 nM |
| Cn1cc(-c2ccc(C(C)(O)c3ccncc3)o2)ccc1=O (stereo not drawn) [Example 58, 5-(5-(1-hydroxy-1-(pyridin-4-yl)ethyl)furan-2-yl)-1-methylpyridin-2(1H)-one] | 50 to 200 nM | 201 to 10000 nM |
| OC1(c2cnc(-c3ccc(F)cc3)s2)CCc2cnccc21 (stereo not drawn) [Example 59, 5-(2-(4-fluorophenyl)thiazol-5-yl)-6,7-dihydro-5H-cyclopenta[c]pyridin-5-ol] | 50 to 200 nM | 201 to 10000 nM |
| Cn1cc(-c2ncc(C(C)(O)c3ccncc3)o2)ccc1=O (stereo not drawn) [Example 60, 5-(5-(1-hydroxy-1-(pyridin-4-yl)-ethyl)oxazol-2-yl)-1-methylpyridin-2(1H)-one] | 201 to 10000 nM | 201 to 10000 nM |
| CC(O)(c1ccncc1)c1nnc(-c2ccc(F)cc2)s1 (stereo not drawn) [Example 61, 1-(5-(4-fluorophenyl)-1,3,4-thiadiazol-2-yl)-1-(pyridin-4-yl)ethanol] | < 50 nM | 50 to 200 nM |
| CCCCC(=O)c1ccc(-c2ccc(C(C)(O)c3ccncc3)nc2)cn1 (stereo not drawn) [Example 62, 1-(6′-(1-hydroxy-1-(pyridin-4-yl)ethyl)-[3,3′-bipyridin]-6-yl)pentan-1-one] | 50 to 200 nM | 201 to 10000 nM |
